According to PubChem BioAssay (NCI):
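Assay format: 96-well plates, 48-hour exposure. TGI: concentration producing complete growth inhibition.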

How the values were obtained:
Experiment in all cases: NCI tumour cell line growth inhibition, 48 h
[1] = test system: 786-0 renal
[2] = test system: A498 renal
[3] = test system: A549 NSCLC
[4] = test system: ACHN renal
[5] = test system: BT-549 breast
[6] = test system: CAKI-1 renal
[7] = test system: CCRF-CEM leukemia
[8] = test system: COLO 205 colon
[9] = test system: DU-145 prostate
[10] = test system: EKVX NSCLC
[11] = test system: HCC-2998 colon
[12] = test system: HCT-116 colon
[13] = test system: HCT-15 colon
[14] = test system: HL-60(TB) leukemia
[15] = test system: HOP-62 NSCLC
[16] = test system: HOP-92 NSCLC
[17] = test system: HS 578T breast
[18] = test system: HT29 colon
[19] = test system: IGROV1 ovarian
[20] = test system: K-562 leukemia
[21] = test system: KM12 colon
[22] = test system: LOX IMVI melanoma
[23] = test system: M14 melanoma
[24] = test system: MALME-3M melanoma
[25] = test system: MCF7 breast
[26] = test system: MDA-MB-231 breast
[27] = test system: MDA-MB-435
[28] = test system: MOLT-4 leukemia
[29] = test system: NCI-H226 lung
[30] = test system: NCI-H23 lung
[31] = test system: NCI-H460 lung
[32] = test system: NCI-H522 lung
[33] = test system: NCI/ADR-RES ovarian
[34] = test system: OVCAR-3 ovarian
[35] = test system: OVCAR-4 ovarian
[36] = test system: OVCAR-5 ovarian
[37] = test system: OVCAR-8 ovarian
[38] = test system: PC-3 prostate
[39] = test system: RPMI-8226 leukemia
[40] = test system: RXF 393 renal
[41] = test system: SF-268 CNS
[42] = test system: SF-295 CNS
[43] = test system: SF-539 CNS
[44] = test system: SK-MEL-2 melanoma
[45] = test system: SK-MEL-28 melanoma
[46] = test system: SK-MEL-5 melanoma
[47] = test system: SK-OV-3 ovarian
[48] = test system: SN12C renal
[49] = test system: SNB-19 CNS
[50] = test system: SNB-75 CNS
[51] = test system: SR leukemia
[52] = test system: SW-620 colon
[53] = test system: T-47D breast
[54] = test system: TK-10 renal
[55] = test system: U251 CNS
[56] = test system: UACC-257 melanoma
[57] = test system: UACC-62 melanoma
[58] = test system: UO-31 renal

Measured: TGI

COCn1cnc2c(=O)n(-c3ccc(C)cc3)c(=S)n(-c3ccc(C)cc3)c21
> 100 µM: [1] | [2] | [3] | [4] | [5] | [6] | [7] | [8] | [9] | [10] | [11] | [12] | [13] | [14] | [15] | [16] | [17] | [18] | [19] | [20] | [21] | [22] | [23] | [24] | [25] | [26] | [27] | [28] | [29] | [30] | [31] | [32] | [33] | [34] | [35] | [36] | [37] | [38] | [39] | [40] | [41] | [42] | [43] | [44] | [45] | [46] | [47] | [48] | [49] | [50] | [51] | [52] | [53] | [54] | [55] | [56] | [57] | [58]
